Assay results as given in patent US20070060636A1, “High enantiomeric purity dexanabinol for pharmaceutical compositions” (priority 2002, published 2007).
Read-outs that look alike come from different tables or passages of the source.

Legend:
[1] = single dose toxicity and pharmacokinetics, rabbit; format: in vivo, New Zealand White rabbits; details: for AUC(0-inf) / Cmax: plasma, single i.v. 25 mg/kg (NOAEL); for AUC∞ Ratio to Phase I / Cmax Ratio to Phase I / Cmax Ratio to Phase II: single i.v. 25 mg/kg; for AUC∞ Ratio to Phase I / Cmax Ratio to Phase I: vs human 150 mg Phase I; for Cmax Ratio to Phase II: vs human 150 mg Phase II
Method: The pharmacokinetics of dexanabinol of high enantiomeric purity formulated in CREMOPHOR EL®:ethanol as described in Example 4 were investigated in rats, rabbits, and monkeys following intravenous administration of single doses, and 14 and 28 days of repeated dosing. Human pharmacokinetics was studied during Phase I and Phase II clinical studies. Dexanabinol used in the pharmacokinetic studies was formulated as drug concentrates of 50 and 100 mg/ml and diluted with sterile 0.9% NaCl solution prior to intravenous (i.v.) administration to the desired final doses. Determination of dexanabinol concentrations in plasma and brain extracts was carried out using a validated Gas Chromatography-Mass Spectra (GC-MS) assay following solid phase extraction of the drug and derivatization. The limit of quantitation of the assay is 0.1 ng/ml.
Pharmacokinetic parameters were estimated by a non-compartmental method using WinNonlin Professional version 3.2 (Pharsight Corp., Mountain View, Calif.). The maximum plasma concentration (Cmax), when the drug is administered by infusion, is the concentration at the end of infusion. The Cmax following intravenous bolus administration is the value estimated by the software to be the concentration at t=0. The terminal slope (X) was estimated by linear regression through the last time points and used to calculate the terminal half-life (t1/2) from the following equation: t1/2=0.693/λ The area under the curve from time of dosing through the last time point (AUCz) was calculated by the linear trapezoid method. The AUC extrapolated to infinity (AUC∞) was calculated from the following equation: AUC∞=AUCz+Cz/λ where Cz is the concentration at the last time point predicted by the linear regression. AUC∞ was normalized for dose (mg/kg) and presented as AUC∞/Dose. Mean residence time (MRT), when the drug is administered by infusion is described by the following equation: MRT=(AUMC/AUC)−(TI)/2 Mean residence time after i.v. bolus administration is described by the following equation: MRT=(AUMC/AUC) where AUMC is the area under the first moment curve and TI is the length of infusion. Plasma clearance (CL), and the apparent volume of distribution at steady state (Vss) were calculated from the following equations: CL=Dose/AUC∞ Vss=MRT×CL
Table 6 summarizes the maximum plasma concentration (Cmax) and the area under the plasma concentration versus time curve (AUC) observed at the NOAEL doses cited above, as well as the animal to human exposure ratios (ER) for dexanabinol of high enantiomeric purity, expressed as the ratio of the pharmacokinetic (PK) parameter to that observed for a 150 mg dose in a Phase I study in human volunteers and in Phase II study in patients suffering from severe traumatic brain injury (TBI).

[2] = international clinical trials, safety; format: in vivo, human; details: more than 500 patients exposed, dexanabinol CREMOPHOR EL:ethanol product
Text: A Safety Committee appointed to monitor patient data to ensure patient safety analyzed patients' data after the enrollment and in all cases the safety committee found the drug safe.

[3] = tested on: severe traumatic brain injury (TBI); experiment: Phase II study, single i.v. dose in patients with severe head trauma; format: in vivo, human; details: for AUC∞/Dose: severe TBI patients, mean ± SE, normalized for dose (mg/kg)
Method: (§1) A Phase II, double masked, multi-center study was conducted to evaluate the safety and tolerance of dexanabinol of high enantiomeric purity following a single intravenous administration in patients with severe head trauma (Knoller N. et al., Crit. Care Med. 30: 548-54, 2002). Treatment was administered within 6 hours of injury, based on the therapeutic window observed in relevant animal models. Additional objectives of the study were to evaluate the long-term outcome of the patients and to determine the optimal dose for Phase III studies.
(§2) Medical information was collected en route or upon arrival at the hospital to determine a patient's suitability for enrollment and a randomized patient number was assigned. Written informed consent was obtained from relatives, all eligible patients being in coma. Antihistamines (promethazine hydrochloride PHENERGAN® 25 mg and cimetidine 50 mg) were administered by intravenous bolus injection 15 minutes prior to study drug administration. Dexanabinol was manufactured and formulated as previously described (50 mg/ml in CREMOPHOR EL®:ethanol clinical formulation) and diluted into 100 ml saline prior to injection. Solutions of dexanabinol were infused intravenously using a peristaltic pump (Ivac) at a rate of 6 ml/min (or approximately 15 min/dose). The total doses of dexanabinol scheduled to be administered were 48, 150, or 200 mg per patient. Five milliliters of blood were removed (from the contralateral arm) at the end of the infusion, at 10 and 30 min, and at 1, 3, 6, 12, and 24 hours thereafter for determination of plasma dexanabinol concentrations. Pharmacokinetic parameters were estimated by non-compartmental methods (WinNonlin Professional version 3.2) up to 24 hr post-injection.
(§3) Primary end points included intracranial pressure (ICP), cardiovascular function (heart rate, mean arterial blood pressure, cerebral perfusion pressure and electrocardiogram), clinical laboratory tests, and adverse medical events. The clinical outcome was assessed by the Glasgow outcome scale throughout a six month follow-up period. The nature and incidence of adverse medical events were similar in all groups supporting the safety of dexanabinol of high enantiomeric purity. […] Dexanabinol is currently being tested in a Phase III clinical trial for TBI.

[4] = as above; format: in vivo, human; details: human, plasma, iv, severe TBI patients, mean ± SE; for AUC / Cmax: up to 24 hr; for Vd: read-out: Vss
Method: as §1, §2, §3

[5] = New Zealand White, iv, rabbit female
[6] = New Zealand White, iv, rabbit male
[7] = both sexes, New Zealand White, iv, rabbit male & female
[8] = 48 mg single i.v. infusion (n = 10)
[9] = 150 mg single i.v. infusion (n = 20)
[10] = 200 mg single i.v. infusion (n = 21)

CCCCCCC(C)(C)c1cc(O)c2c(c1)OC(C)(C)[C@H]1CC=C(CO)C[C@H]21 [dexanabinol, 1,1-dimethylheptyl-(3S,4S)-7-hydroxy-Δ^6-tetrahydrocannabinol]
AUC(0-inf) [1, 5]: 16200 ng·h/mL | Cmax [1, 5]: 34500 ng/mL | AUC(0-inf) [1, 6]: 20100 ng·h/mL | Cmax [1, 6]: 33800 ng/mL | NOAEL ([1]; New Zealand White, rabbit, in vivo, iv, single dose i.v., read-out: no observed adverse effect level (NOAEL)): 25 mg/kg | AUC(0-inf) [1, 7]: 18200 ng·h/mL | Cmax [1, 7]: 33400 ng/mL | AUC∞ Ratio to Phase I ([1]; rabbit female): 5.1 | Cmax Ratio to Phase I ([1]; rabbit female): 6.9 | Cmax Ratio to Phase II ([1]; rabbit female): 17.6 | AUC∞ Ratio to Phase I ([1]; rabbit male & female): 5.7 | Cmax Ratio to Phase I ([1]; rabbit male & female): 6.7 | Cmax Ratio to Phase II ([1]; rabbit male & female): 17.0 | AUC∞ Ratio to Phase I ([1]; rabbit male): 6.3 | Cmax Ratio to Phase I ([1]; rabbit male): 6.8 | Cmax Ratio to Phase II ([1]; rabbit male): 17.2 | serious adverse reactions [2]: no serious adverse reactions were reported | AUC∞/Dose [3, 8]: 51,846 ± 5,526 ng × min/ml | AUC∞/Dose [3, 9]: 43,542 ± 4,329 ng × min/ml | AUC∞/Dose [3, 10]: 69,007 ± 5,835 ng × min/ml | neurological outcome ([3]; Glasgow outcome scale, six month follow-up): trend toward faster and better neurological outcome | Cmax Ratio to Phase II ([3]; human Phase II, 150 mg single i.v., reference itself): 1.0 | safety in severe head injury ([3]; single i.v. 48, 150 or 200 mg within 6 hours of injury): safe and well tolerated | intracranial pressure/cerebral perfusion pressure control ([3]; treated patients, without jeopardizing blood pressure): significantly better | AUC(0-inf) [4, 8]: 572 ng·h/mL | MRT [4, 8]: 4.1 ± 0.7 h | clearance [4, 8]: 22.6 ± 3.9 mL/min/kg | half-life [4, 8]: 7 ± 0.9 h | AUC [4, 8]: 548 ng·h/mL | Cmax [4, 8]: 1150 ng/mL | Vd [4, 8]: 6.6 ± 2.6 L/kg | AUC(0-inf) [4, 9]: 1480 ng·h/mL | MRT [4, 9]: 3.8 ± 0.4 h | clearance [4, 9]: 31 ± 5.8 mL/min/kg | half-life [4, 9]: 5.3 ± 0.5 h | AUC [4, 9]: 1450 ng·h/mL | Cmax [4, 9]: 1970 ng/mL | Vd [4, 9]: 7.5 ± 1.5 L/kg | AUC(0-inf) [4, 10]: 3250 ng·h/mL | MRT [4, 10]: 3.5 ± 0.3 h | clearance [4, 10]: 17.6 ± 1.9 mL/min/kg | half-life [4, 10]: 6.3 ± 0.3 h | AUC [4, 10]: 3170 ng·h/mL | Cmax [4, 10]: 5790 ng/mL | Vd [4, 10]: 4.2 ± 0.9 L/kg
